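Five concentrations, 48 hours, 96-well plates. Definition used: TGI = concentration required for complete inhibition of growth.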
Key:
Test in all cases: NCI anticancer screen, dose series, 48 h
COLO 205 colon = test system: COLO 205 colon
SF-295 CNS = test system: SF-295 CNS
OVCAR-4 ovarian = test system: OVCAR-4 ovarian
NCI-H522 lung = test system: NCI-H522 lung
SK-OV-3 ovarian = test system: SK-OV-3 ovarian
OVCAR-5 ovarian = test system: OVCAR-5 ovarian
NCI-H460 lung = test system: NCI-H460 lung
RXF-631 renal = test system: RXF-631 renal
RPMI-8226 leukemia = test system: RPMI-8226 leukemia
UACC-257 melanoma = test system: UACC-257 melanoma
SNB-19 CNS = test system: SNB-19 CNS
SNB-78 CNS = test system: SNB-78 CNS
M19-MEL melanoma = test system: M19-MEL melanoma
UO-31 renal = test system: UO-31 renal
NCI-H226 lung = test system: NCI-H226 lung
DLD-1 colon = test system: DLD-1 colon
HCC-2998 colon = test system: HCC-2998 colon
786-0 renal = test system: 786-0 renal
TK-10 renal = test system: TK-10 renal
SK-MEL-28 melanoma = test system: SK-MEL-28 melanoma
MALME-3M melanoma = test system: MALME-3M melanoma
CCRF-CEM leukemia = test system: CCRF-CEM leukemia
DMS 273 small cell lung = test system: DMS 273 small cell lung
SF-268 CNS = test system: SF-268 CNS
ACHN renal = test system: ACHN renal
A549 NSCLC = test system: A549 NSCLC
UACC-62 melanoma = test system: UACC-62 melanoma
CAKI-1 renal = test system: CAKI-1 renal
LOX IMVI melanoma = test system: LOX IMVI melanoma
DMS 114 small cell lung = test system: DMS 114 small cell lung
RXF 393 renal = test system: RXF 393 renal
HOP-92 NSCLC = test system: HOP-92 NSCLC
SN12C renal = test system: SN12C renal
EKVX NSCLC = test system: EKVX NSCLC
HCT-116 colon = test system: HCT-116 colon
KM12 colon = test system: KM12 colon
HT29 colon = test system: HT29 colon
SW-620 colon = test system: SW-620 colon
SK-MEL-5 melanoma = test system: SK-MEL-5 melanoma
OVCAR-3 ovarian = test system: OVCAR-3 ovarian
HOP-62 NSCLC = test system: HOP-62 NSCLC
U251 CNS = test system: U251 CNS
LXFL 529 NSCLC = test system: LXFL 529 NSCLC
XF 498 CNS = test system: XF 498 CNS
HOP-18 NSCLC = test system: HOP-18 NSCLC
SNB-75 CNS = test system: SNB-75 CNS
OVCAR-8 ovarian = test system: OVCAR-8 ovarian
A498 renal = test system: A498 renal
M14 melanoma = test system: M14 melanoma
IGROV1 ovarian = test system: IGROV1 ovarian
SF-539 CNS = test system: SF-539 CNS
SR leukemia = test system: SR leukemia
NCI-H23 lung = test system: NCI-H23 lung
K-562 leukemia = test system: K-562 leukemia
MOLT-4 leukemia = test system: MOLT-4 leukemia
SK-MEL-2 melanoma = test system: SK-MEL-2 melanoma
HL-60(TB) leukemia = test system: HL-60(TB) leukemia
HCT-15 colon = test system: HCT-15 colon
KM20L2 colon = test system: KM20L2 colon

Measured: TGI

CC12CC3(C)CC(C)(C1)CC(N=[N+]=[N-])(C2)C3
> 100 µM: COLO 205 colon | SF-295 CNS | OVCAR-4 ovarian | NCI-H522 lung | SK-OV-3 ovarian | OVCAR-5 ovarian | NCI-H460 lung | RXF-631 renal | RPMI-8226 leukemia | UACC-257 melanoma | SNB-19 CNS | SNB-78 CNS | M19-MEL melanoma | UO-31 renal | NCI-H226 lung | DLD-1 colon | HCC-2998 colon | 786-0 renal | TK-10 renal | SK-MEL-28 melanoma | MALME-3M melanoma | CCRF-CEM leukemia | DMS 273 small cell lung | SF-268 CNS | ACHN renal | A549 NSCLC | UACC-62 melanoma | CAKI-1 renal | LOX IMVI melanoma | DMS 114 small cell lung | RXF 393 renal | HOP-92 NSCLC | SN12C renal | EKVX NSCLC | HCT-116 colon | KM12 colon | HT29 colon | SW-620 colon | SK-MEL-5 melanoma | OVCAR-3 ovarian | HOP-62 NSCLC | U251 CNS | LXFL 529 NSCLC | XF 498 CNS | HOP-18 NSCLC | SNB-75 CNS | OVCAR-8 ovarian | A498 renal | M14 melanoma | IGROV1 ovarian | SF-539 CNS | SR leukemia | NCI-H23 lung | K-562 leukemia | MOLT-4 leukemia | SK-MEL-2 melanoma

Nc1nc2c(ncn2Cc2ccccc2CCO)c(=O)[nH]1
> 100 µM: COLO 205 colon | SF-295 CNS | OVCAR-4 ovarian | NCI-H522 lung | SK-OV-3 ovarian | OVCAR-5 ovarian | NCI-H460 lung | RXF-631 renal | RPMI-8226 leukemia | SNB-19 CNS | M19-MEL melanoma | UO-31 renal | NCI-H226 lung | HCC-2998 colon | 786-0 renal | TK-10 renal | SK-MEL-28 melanoma | MALME-3M melanoma | HL-60(TB) leukemia | CCRF-CEM leukemia | DMS 273 small cell lung | SF-268 CNS | ACHN renal | A549 NSCLC | HCT-15 colon | UACC-62 melanoma | CAKI-1 renal | LOX IMVI melanoma | DMS 114 small cell lung | RXF 393 renal | HOP-92 NSCLC | SN12C renal | EKVX NSCLC | KM12 colon | HT29 colon | SW-620 colon | SK-MEL-5 melanoma | OVCAR-3 ovarian | HOP-62 NSCLC | KM20L2 colon | U251 CNS | LXFL 529 NSCLC | XF 498 CNS | SNB-75 CNS | OVCAR-8 ovarian | A498 renal | M14 melanoma | IGROV1 ovarian | NCI-H23 lung | K-562 leukemia | MOLT-4 leukemia | SK-MEL-2 melanoma

From PubChem BioAssay (NCI)
